# Measured values taken from patent publication US8546085B2, “Methods of identifying modulators of the bitter taste receptor TAS2R44” (Givaudan SA, priority 2008, dated 2013).
# Where two headings read alike, the source gives them in different places.
# What was measured:
# TAS2R44 = biological target: T1, TAS2R44 (Homo sapiens, UniProt P59538, L162M); test: Fluo-4 calcium assay, antagonists of the response of TAS2R44 to steviol glycosides; type: cell-based
# T1 construct: The full length gene of human TAS2R44 was amplified by polymerase chain reaction (PCR) using gene-specific primers that span the entire coding region; RSS tag (first 45 amino acids of rat somatostatin receptor subtype 3, plus EcoRI site) (N); expressed in transfected cells; host or cells: HEK293T/Galpha16-gustducin 44 cells, stably transfected with pcDNA3.1Zeo-TAS2R44
# T1 sequence (P59538 with tags, fused parts or gaps L162M): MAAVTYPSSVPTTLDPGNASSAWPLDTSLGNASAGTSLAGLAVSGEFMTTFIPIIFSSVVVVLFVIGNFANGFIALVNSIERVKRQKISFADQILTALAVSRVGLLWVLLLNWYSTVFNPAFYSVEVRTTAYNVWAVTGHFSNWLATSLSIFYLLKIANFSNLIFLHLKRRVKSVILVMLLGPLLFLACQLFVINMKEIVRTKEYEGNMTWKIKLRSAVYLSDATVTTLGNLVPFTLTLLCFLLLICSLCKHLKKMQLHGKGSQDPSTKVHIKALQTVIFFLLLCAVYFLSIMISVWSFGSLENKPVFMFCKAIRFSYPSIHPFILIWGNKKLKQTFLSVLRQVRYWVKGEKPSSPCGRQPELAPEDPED
# Method: All cells were HEK293T cells stably expressing Gα16-gustducin44, or expressing Gα16-gustducin44 and TAS2R44.
# The method was carried out as described in example 3 subject to the following modifications:
# The samples were tested with and without candidate bitter blocker and the signals were compared. The candidate bitter blocker was dissolved in dimethylsulfoxide (DMSO), and a negative control with equivalent DMSO concentration (0.02%) was performed accordingly to exclude a potential inhibitory effect of the solvent. Furthermore, a control with the relevant steviol glycoside and DMSO (0.02%) was performed accordingly (see table in example 5).
# All data was calculated as ΔF/F0 and the standard deviation (STD) is indicated in each table, see results for the identified bitter blocker 4-(2,2,3-trimethyl-cyclopentyl)-butanoic acid below.
# [1] = tested on: bitter taste/aftertaste of Rebaudioside A; test: Sensory evaluation of bitter blocking by 8 bitter-sensitive panelists; type: in vivo, human
# Method: 4-(2,2,3-trimethyl-cyclopentyl)-butanoic acid was sensorically evaluated for its bitter blocking characteristics by 8 bitter-sensitive panelists.
# The following samples in water were evaluated and compared in their bitter taste/aftertaste: • Rebaudioside A (60 ppm) with bitter blocker (10 ppm) • Rebaudioside A (60 ppm) without bitter blocker • Rebaudioside A (230 ppm, isosweet to 7% sugar in water) • Rebaudioside A (230 ppm) with bitter blocker (10 ppm 30 ppm and 50 ppm)
# 20 ml of each sample was presented in random order.
smiles,measurement,setting,value
"CC1CCC(CCCC(=O)O)C1(C)C (centres unmarked) [4-(2,2,3-trimethyl-cyclopentyl)-butanoic acid]",TAS2R44 ΔF/F0,TAS2R44; 0.7 mM rebaudioside A (EC50) + bitter blocker 0.098 μM,0.4022
same,TAS2R44 ΔF/F0,TAS2R44; 0.7 mM rebaudioside A (EC50) + bitter blocker 0.195 μM,0.3678
same,TAS2R44 ΔF/F0,TAS2R44; 0.7 mM rebaudioside A (EC50) + bitter blocker 0.391 μM,0.2825
same,TAS2R44 ΔF/F0,TAS2R44; 0.7 mM rebaudioside A (EC50) + bitter blocker 0.781 μM,0.2156
same,TAS2R44 ΔF/F0,TAS2R44; 0.7 mM rebaudioside A (EC50) + bitter blocker 1.563 μM,0.1328
same,TAS2R44 ΔF/F0,TAS2R44; 0.7 mM rebaudioside A (EC50) + bitter blocker 3.125 μM,0.1225
same,TAS2R44 ΔF/F0,TAS2R44; 0.7 mM rebaudioside A (EC50) + bitter blocker 6.250 μM,0.1794
same,TAS2R44 ΔF/F0,TAS2R44; 0.7 mM rebaudioside A (EC50) + bitter blocker 12.50 μM,0.2056
same,TAS2R44 ΔF/F0,TAS2R44; 0.7 mM rebaudioside A (EC50) + bitter blocker 25.00 μM,0.2275
same,TAS2R44 ΔF/F0,TAS2R44; 0.7 mM rebaudioside A (EC50) + bitter blocker 50.00 μM,0.2347
same,TAS2R44 ΔF/F0,TAS2R44; 0.7 mM rebaudioside A (EC50) + bitter blocker 100.0 μM,0.2238
same,TAS2R44 ΔF/F0,TAS2R44; 2.2 mM stevioside (EC50) + bitter blocker 0.098 μM,0.665
same,TAS2R44 ΔF/F0,TAS2R44; 2.2 mM stevioside (EC50) + bitter blocker 0.195 μM,0.596
same,TAS2R44 ΔF/F0,TAS2R44; 2.2 mM stevioside (EC50) + bitter blocker 0.391 μM,0.555
same,TAS2R44 ΔF/F0,TAS2R44; 2.2 mM stevioside (EC50) + bitter blocker 0.781 μM,0.491
same,TAS2R44 ΔF/F0,TAS2R44; 2.2 mM stevioside (EC50) + bitter blocker 1.563 μM,0.431
same,TAS2R44 ΔF/F0,TAS2R44; 2.2 mM stevioside (EC50) + bitter blocker 3.125 μM,0.430
same,TAS2R44 ΔF/F0,TAS2R44; 2.2 mM stevioside (EC50) + bitter blocker 6.250 μM,0.328
same,TAS2R44 ΔF/F0,TAS2R44; 2.2 mM stevioside (EC50) + bitter blocker 12.50 μM,0.293
same,TAS2R44 ΔF/F0,TAS2R44; 2.2 mM stevioside (EC50) + bitter blocker 25.00 μM,0.252
same,TAS2R44 ΔF/F0,TAS2R44; 2.2 mM stevioside (EC50) + bitter blocker 50.00 μM,0.238
same,TAS2R44 ΔF/F0,TAS2R44; 2.2 mM stevioside (EC50) + bitter blocker 100.0 μM,0.212
same,IC50,"TAS2R44; inhibition of the response to 0.7 mM rebaudioside A, read-out: IC50 concentration for rebaudioside",357 nM
same,IC50,"TAS2R44; inhibition of the response to 2.2 mM stevioside, read-out: IC50 concentration for stevioside",578 nM
same,effect on bitterness of Rebaudioside A,"[1]; 10 ppm bitter blocker, in water",blocked the upfront bitterness but some lingering bitterness/aftertaste remained
same,effect on bitterness of Rebaudioside A,"[1]; 30 ppm bitter blocker, Rebaudioside A 230 ppm in water",improved effect to reduce the lingering bitterness/bitter aftertaste
same,effect on bitterness of Rebaudioside A,"[1]; 50 ppm bitter blocker, Rebaudioside A 230 ppm in water",improved effect to reduce the lingering bitterness/bitter aftertaste
same,effect on bitterness of Rebaudioside A,"[1]; 60 ppm, in water",completely blocked the bitterness including the bitter aftertaste
same,effect on bitter taste/aftertaste of Rebaudioside A,"[1]; all panelists, samples in water",blocked or significantly reduced the bitter taste/aftertaste
